Test results reported in publication PMC3485633 (BMC Pharmacology, 2012).

Experiments:
[1] = target: T1, H1 receptor (Rattus norvegicus, UniProt P31390); experiment: [3H]-Pyrilamine radioligand binding assay, rat hypothalamus membrane homogenate; parameters: species or system Sprague Dawley rats; conditions: read-out: Ki ± SD H1
T1 construct: The prefrontal cortex, striatum and hypothalamus were homogenized in about 6 volumes of ice-cold buffer; from tissue; host or cells: rat hypothalamus membrane homogenate

[2] = target: T2, D2 receptor (Rattus norvegicus, UniProt P61169); experiment: [3H]-Spiperone radioligand binding assay, rat striatum membrane homogenate; parameters: species or system Sprague Dawley rats; conditions: read-out: Ki ± SD D2
T2 construct: The prefrontal cortex, striatum and hypothalamus were homogenized in about 6 volumes of ice-cold buffer; from tissue; host or cells: rat striatum membrane homogenate

[3] = target: T3, 5HT2A receptor (Rattus norvegicus, UniProt P14842); experiment: [3H]-Ketanserine radioligand binding assay, rat prefrontal cortex membrane homogenate; parameters: species or system Sprague Dawley rats; conditions: for Ki: read-out: Ki ± SD 5HT2A; for pKi ratio 5HT2A/D2: ratio of pKi at 5HT2A to pKi at D2, rat tissue homogenate
T3 construct: The prefrontal cortex, striatum and hypothalamus were homogenized in about 6 volumes of ice-cold buffer; from tissue; host or cells: rat prefrontal cortex membrane homogenate

[4] = parameters: method as in PMID 11488257, PMID 22103329; conditions: patients treated with these medications; cited from earlier work
[5] = target: D2 receptor; conditions: read-out: Ki D2 receptor; cited from earlier work

T2 sequence (P61169 whole entry): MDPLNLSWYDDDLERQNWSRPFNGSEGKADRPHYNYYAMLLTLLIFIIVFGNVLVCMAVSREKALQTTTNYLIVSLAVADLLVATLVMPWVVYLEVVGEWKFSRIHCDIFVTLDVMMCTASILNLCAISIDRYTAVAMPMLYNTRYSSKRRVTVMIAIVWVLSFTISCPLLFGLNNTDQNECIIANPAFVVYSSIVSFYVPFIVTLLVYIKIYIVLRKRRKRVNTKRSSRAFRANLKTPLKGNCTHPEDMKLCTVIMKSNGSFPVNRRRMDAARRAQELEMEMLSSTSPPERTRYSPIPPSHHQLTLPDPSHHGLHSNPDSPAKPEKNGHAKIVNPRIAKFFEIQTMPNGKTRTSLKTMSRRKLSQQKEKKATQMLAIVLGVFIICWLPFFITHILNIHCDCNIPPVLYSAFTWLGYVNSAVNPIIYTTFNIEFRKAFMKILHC
T1 sequence (P31390 whole entry): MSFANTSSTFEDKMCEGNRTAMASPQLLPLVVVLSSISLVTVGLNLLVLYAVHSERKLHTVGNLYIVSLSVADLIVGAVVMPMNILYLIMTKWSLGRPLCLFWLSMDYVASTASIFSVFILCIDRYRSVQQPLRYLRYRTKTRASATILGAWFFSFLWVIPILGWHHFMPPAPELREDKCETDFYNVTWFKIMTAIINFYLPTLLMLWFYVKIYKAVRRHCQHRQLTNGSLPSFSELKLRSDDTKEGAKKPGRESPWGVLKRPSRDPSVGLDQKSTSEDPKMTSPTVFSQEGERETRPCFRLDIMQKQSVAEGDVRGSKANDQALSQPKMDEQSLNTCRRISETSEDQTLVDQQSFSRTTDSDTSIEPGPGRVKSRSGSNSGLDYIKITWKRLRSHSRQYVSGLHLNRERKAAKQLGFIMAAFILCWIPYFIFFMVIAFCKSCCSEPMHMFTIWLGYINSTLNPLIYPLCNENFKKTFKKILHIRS
T3 sequence (P14842 whole entry): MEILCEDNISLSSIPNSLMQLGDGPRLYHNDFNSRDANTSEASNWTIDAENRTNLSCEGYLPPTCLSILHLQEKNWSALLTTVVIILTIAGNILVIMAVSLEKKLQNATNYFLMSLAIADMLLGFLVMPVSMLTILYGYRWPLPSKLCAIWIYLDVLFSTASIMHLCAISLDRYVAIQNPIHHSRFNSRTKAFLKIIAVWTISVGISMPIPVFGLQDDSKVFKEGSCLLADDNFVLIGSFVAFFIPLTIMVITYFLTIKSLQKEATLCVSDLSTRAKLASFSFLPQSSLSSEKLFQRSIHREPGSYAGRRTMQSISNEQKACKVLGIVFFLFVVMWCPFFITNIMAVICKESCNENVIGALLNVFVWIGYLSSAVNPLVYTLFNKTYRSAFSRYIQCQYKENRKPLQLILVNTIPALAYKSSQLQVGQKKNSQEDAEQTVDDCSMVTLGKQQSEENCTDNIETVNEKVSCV

Question: With `Cc1cc2c(s1)Nc1ccccc1N=C2N1CCCN(C)CC1` [Compound 8a, 2-methyl-4-(4′-methyl-1′,4′-diazepan-1′-yl)-10H-benzo[b]thieno[2,3-e] [1,4]diazepine] as the compound, how does the Ki [1] read?
Answer: 33.5 ± 7.39 nM

Question: And the Ki [2]?
Answer: 3940 ± 437 nM

Question: What about the Ki [3] of the same compound?
Answer: 787 ± 29.8 nM

Question: What does the source list for `CCc1cc2c(s1)Nc1ccccc1N=C2N1CCCN(C)CC1` [Compound 8b, 2-ethyl-4-(4′-methyl-1′,4′-diazepan-1′-yl)-10H-benzo[b]thieno[2,3-e] [1,4]diazepine]?
Answer: Ki [1]: 13.6 ± 2.68 nM; Ki [2]: 791 ± 83.2 nM; pKi ratio 5HT2A/D2 [3]: 1.16; Ki [3]: 81.2 ± 2.43 nM

Question: What does the source list for `CCc1cc2c(s1)Nc1ccccc1N=C2N1CCN(C)CC1` [Compound 8c, 2-ethyl-4-(4′-methylpiperazin-1′-yl)-10Hbenzo[b]thieno[2,3-e][1,4]diazepine]?
Answer: Ki [1]: 1.95 ± 0.33 nM; Ki [2]: 54.5 ± 12.1 nM; pKi ratio 5HT2A/D2 [3]: 1.16; Ki [3]: 3.7 ± 0.74 nM

Question: Which “weight change in treated patients” value [4] does the source give for `Clc1ccc2c(c1)C(N1CCNCC1)=Nc1ccccc1O2` [amoxapine] here?
Answer: neither weight gain nor weight loss

Question: With `CN1CCN(C2=Nc3ccccc3Oc3ccc(Cl)cc32)CC1` [loxapine] as the compound, how does the “weight change in treated patients” value [4] read?
Answer: neither weight gain nor weight loss

Question: With `CCN1CCC[C@H]1CNC(=O)c1c(OC)ccc(Br)c1OC` [remoxipride] as the compound, how does the Ki [5] read?
Answer: 800 nM
